This test relates to BDF1 mice, B16 melanoma ip, median survival T/C. Briefly: NCI In Vivo Anticancer Drug Screen. Data for tumor model B16 Melanoma (intraperitoneal) in B6D2F1 (BDF1) mice. As to conditions: endpoint: median survival time, higher = longer survival. The procedure, abridged: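 Each result divides a survival or tumor-size measurement in the compound-treated group by the same measurement in the vehicle group.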

Setting [1] is: dose: 100.0 mg/kg/injection, schedule: Q01DX009 (ip), vehicle: other.
Where [2] appears, read: dose: 200.0 mg/kg/injection, schedule: Q01DX009 (ip), vehicle: other.
The mark [3] stands for this setting: dose: 100.0 mg/kg/injection, schedule: Q04DX003 (ip), vehicle: Klucel (hydroxypropylcellulose) (HPC).
Setting [4] is: dose: 200.0 mg/kg/injection, schedule: Q04DX003 (ip), vehicle: Klucel (hydroxypropylcellulose) (HPC).
Where [5] appears, read: dose: 400.0 mg/kg/injection, schedule: Q04DX003 (ip), vehicle: Klucel (hydroxypropylcellulose) (HPC).
Setting [6] is: dose: 50.0 mg/kg/injection, schedule: Q01DX009 (ip), vehicle: saline.
The mark [7] stands for this setting: dose: 100.0 mg/kg/injection, schedule: Q01DX009 (ip), vehicle: saline.
[8] abbreviates: dose: 50.0 mg/kg/injection, schedule: Q01DX009 (ip), vehicle: saline with Tween-80.
Where [9] appears, read: dose: 100.0 mg/kg/injection, schedule: Q01DX009 (ip), vehicle: saline with Tween-80.
Where [10] appears, read: dose: 400.0 mg/kg/injection, schedule: Q01DX009 (ip), vehicle: other.
[11] abbreviates: dose: 50.0 mg/kg/injection, schedule: Q04DX003 (ip), vehicle: Klucel (hydroxypropylcellulose) (HPC).
Setting [12] is: dose: 200.0 mg/kg/injection, schedule: Q01DX009 (ip), vehicle: saline with Tween-80.
Setting [13] is: dose: 400.0 mg/kg/injection, schedule: Q01DX009 (ip), vehicle: saline with Tween-80.
Where [14] appears, read: dose: 12.5 mg/kg/injection, schedule: Q01DX009 (ip), vehicle: saline with Tween-80.
[15] abbreviates: dose: 25.0 mg/kg/injection, schedule: Q01DX009 (ip), vehicle: saline with Tween-80.
The mark [16] stands for this setting: dose: 100.0 mg/kg/injection, schedule: Q01DX009 (ip), vehicle: Klucel (hydroxypropylcellulose) (HPC).
Where [17] appears, read: dose: 200.0 mg/kg/injection, schedule: Q01DX009 (ip), vehicle: Klucel (hydroxypropylcellulose) (HPC).
Setting [18] is: dose: 6.25 mg/kg/injection, schedule: Q01DX009 (ip), vehicle: saline.
Setting [19] is: dose: 12.5 mg/kg/injection, schedule: Q01DX009 (ip), vehicle: saline.
Setting [20] is: dose: 25.0 mg/kg/injection, schedule: Q01DX009 (ip), vehicle: saline.
[21] abbreviates: dose: 50.0 mg/kg/injection, schedule: Q01DX009 (ip), vehicle: Klucel (hydroxypropylcellulose) (HPC).

Each structure is given as a SMILES string. Values joined by “and” are separate entries in the source; they are usually repeats but may differ in a detail not shown here. Equal entries are not always repeated. Toxic doses and inconclusive results are not listed.

On to `CCCCCCCCCCCC(=O)CC`, for which the T/C under setting [1] is 96 % of control and the T/C under setting [2] is 87 % of control.

For `CCOC(=O)c1ccc(NC(=O)Nc2nncs2)cc1`, the T/C by setting is: (dose: 6.25 mg/kg/injection, schedule: Q01DX009 (ip), vehicle: distilled water + Tween-80) 93 % of control; (dose: 12.5 mg/kg/injection, schedule: Q01DX009 (ip), vehicle: distilled water + Tween-80) 112 % of control; (dose: 25.0 mg/kg/injection, schedule: Q01DX009 (ip), vehicle: distilled water + Tween-80) 95 % of control; (dose: 50.0 mg/kg/injection, schedule: Q01DX009 (ip), vehicle: distilled water + Tween-80) 98 % of control.

Consider `Cc1c(N=O)c(=O)n(-c2ccccc2)n1C`, for which the T/C is 100 % of control under setting [3], 100 % of control under setting [4] and 106 % of control under setting [5].

In the case of `C1=C(c2ccccc2)CCC1`, the T/C by setting is: under setting [6], 97 % of control; under setting [7], 88 % of control.

On to `O=C(O)/C(=C\c1ccc(Cl)cc1)c1ccc(Cl)cc1`, for which the T/C is 87 % of control (dose: 37.5 mg/kg/injection, schedule: Q01DX009 (ip), vehicle: Klucel (hydroxypropylcellulose) (HPC)); 92 % of control (dose: 75.0 mg/kg/injection, schedule: Q01DX009 (ip), vehicle: Klucel (hydroxypropylcellulose) (HPC)); 93 % of control (dose: 150.0 mg/kg/injection, schedule: Q01DX009 (ip), vehicle: Klucel (hydroxypropylcellulose) (HPC)).

On to `O=C(O)C(O)C(=O)O.[NH2-].[NH2-].[Pt+2]`, for which the T/C is 104 % of control (dose: 1.0 mg/kg/injection, schedule: Q01DX009 (ip), vehicle: other); 156 % of control and 175 % of control and 192 % of control (dose: 8.0 mg/kg/injection, schedule: Q01DX009 (ip), vehicle: other); 197 % of control and 288 % of control and 300 % of control (dose: 16.0 mg/kg/injection, schedule: Q01DX009 (ip), vehicle: other); 281 % of control (dose: 32.0 mg/kg/injection, schedule: Q01DX009 (ip), vehicle: other).

With `COc1ccc(Br)cc1`, the T/C by setting is: under setting [8], 100 % of control; under setting [9], 104 % of control.

As to `CCOC(=O)C(NC(N)=O)C(=O)OCC`, the T/C is 104 % of control (dose: 50.0 mg/kg/injection, schedule: Q01DX009 (ip), vehicle: other); 104 % of control under setting [1]; 103 % of control under setting [2]; 104 % of control under setting [10].

For the compound `CCOC(=O)C(O)C(C#N)c1ccccc1` (stereo not drawn), the T/C under setting [1] is 98 % of control, the T/C under setting [2] was 99 % of control and the T/C under setting [10] is 107 % of control.

Turning to `Cc1ccc(C)c(NC(=O)Nc2ccccc2C)c1`, the T/C was 87 % of control under setting [11] and 87 % of control under setting [4].

As for `CCCCCCCCCCCC(=O)[O][Sn]([CH2]c1ccccc1)([CH2]c1ccccc1)[CH2]c1ccccc1`, the T/C by setting is: (dose: 1.25 mg/kg/injection, schedule: Q04DX003 (ip), vehicle: other) 107 % of control; (dose: 2.5 mg/kg/injection, schedule: Q04DX003 (ip), vehicle: other) 105 % of control; (dose: 5.0 mg/kg/injection, schedule: Q04DX003 (ip), vehicle: other) 95 % of control.

Consider `O=C(c1ccncc1)c1c(Cc2ccccc2)ccc2ccccc12`, for which the T/C is, setting by setting: under setting [8], 100 % of control; under setting [9], 99 % of control; under setting [12], 95 % of control; under setting [13], 95 % of control.

As for `Cc1cc(C(C)C)cc(C(C)C)c1`, the T/C is, setting by setting: (dose: 6.25 mg/kg/injection, schedule: Q04DX003 (ip), vehicle: Klucel (hydroxypropylcellulose) (HPC)) 102 % of control; (dose: 12.5 mg/kg/injection, schedule: Q04DX003 (ip), vehicle: Klucel (hydroxypropylcellulose) (HPC)) 108 % of control; (dose: 25.0 mg/kg/injection, schedule: Q04DX003 (ip), vehicle: Klucel (hydroxypropylcellulose) (HPC)) 105 % of control; under setting [11], 88 % of control; under setting [3], 98 % of control; under setting [4], 97 % of control.

Turning to `COC1=C(OC)C(=O)C(SC/C=C(\C)CCCC(C)CCCC(C)CCCC(C)C)=CC1=O` (stereo not drawn), the T/C is, setting by setting: under setting [14], 108 % of control; under setting [15], 105 % of control; under setting [8], 110 % of control; under setting [9], 115 % of control.

As for `C[CH2][Pb]([Br])([CH2]C)[CH2]C`, the T/C is 91 % of control (dose: 3.12 mg/kg/injection, schedule: Q01DX009 (ip), vehicle: saline with Tween-80); 94 % of control (dose: 6.25 mg/kg/injection, schedule: Q01DX009 (ip), vehicle: saline with Tween-80); 89 % of control under setting [14]; 94 % of control under setting [15].

Consider `C1=C(c2ccccc2)CCCC1`, for which the T/C is 90 % of control under setting [3], 93 % of control under setting [4] and 103 % of control under setting [5].

As for `COc1cc(C=Nc2cccc(C(F)(F)F)c2)ccc1O`, the T/C is, setting by setting: under setting [16], 99 % of control; under setting [17], 94 % of control.

Take `COC1C=CC23c4cc5c(cc4C(O)OC2CN(C)C3C1)OCO5` (stereo not drawn): the T/C was 101 % of control and 109 % of control under setting [18]; 98 % of control and 108 % of control under setting [19]; 112 % of control and 116 % of control under setting [20]; 112 % of control under setting [6].

Regarding `CCCN(CCC)CC(C)=O`, the T/C reads like this: under setting [3], 107 % of control; under setting [4], 97 % of control.

With `CCc1ccccc1NC(=O)c1cccc(C(=O)Nc2ccccc2CC)c1`, the T/C under setting [21] is 102 % of control, the T/C under setting [16] is 105 % of control and the T/C under setting [17] is 102 % of control.

For the compound `CN(C)C=NC1CCC(C(C)(C)C)CC1` (stereo not drawn), the T/C reads like this: (dose: 6.25 mg/kg/injection, schedule: Q01DX009 (ip), vehicle: Klucel (hydroxypropylcellulose) (HPC)) 89 % of control; (dose: 12.5 mg/kg/injection, schedule: Q01DX009 (ip), vehicle: Klucel (hydroxypropylcellulose) (HPC)) 93 % of control; (dose: 25.0 mg/kg/injection, schedule: Q01DX009 (ip), vehicle: Klucel (hydroxypropylcellulose) (HPC)) 86 % of control.

`CCOc1ccc(NC(=O)C=O)cc1`: the T/C was 100 % of control under setting [16]; 90 % of control under setting [17]; 90 % of control (dose: 400.0 mg/kg/injection, schedule: Q01DX009 (ip), vehicle: Klucel (hydroxypropylcellulose) (HPC)).

Regarding `Brc1ccc(C=C2c3ccccc3-c3ccccc32)cc1`, the T/C is, setting by setting: under setting [3], 97 % of control; under setting [4], 105 % of control; under setting [5], 102 % of control.

Take `CC1CN1P(=S)(Oc1ccccc1)N1CC1C` (stereo not drawn): the T/C under setting [15] is 97 % of control; the T/C under setting [8] was 95 % of control; the T/C under setting [9] was 93 % of control and 97 % of control; the T/C under setting [13] was 100 % of control.

On to `CCCCOB=O`, for which the T/C runs as follows: under setting [8], 95 % of control; under setting [9], 99 % of control; under setting [12], 89 % of control.

`ClCCN(CCCl)CCCN1c2ccccc2Sc2ccccc21`: the T/C was 109 % of control (dose: 3.12 mg/kg/injection, schedule: Q04DX003 (ip), vehicle: saline with Tween-80) and 97 % of control (dose: 6.25 mg/kg/injection, schedule: Q04DX003 (ip), vehicle: saline with Tween-80).

On to `Cc1cc(SCC(=O)c2ccc(Br)cc2)cc(C)[o+]1`, for which the T/C runs as follows: under setting [18], 111 % of control and 122 % of control; under setting [19], 112 % of control and 119 % of control; under setting [20], 98 % of control and 118 % of control; under setting [6], 106 % of control; under setting [7], 95 % of control.

For the compound `Cc1nn(CCO)c(C)c1N=[N+]([O-])c1c(C)nn(CCO)c1C`, the T/C (dose: 15.0 mg/kg/injection, schedule: Q01DX011 (ip), vehicle: saline with Tween-80) was 88 % of control.

Regarding `CCc1ccc(NC2=NCCO2)cc1`, the T/C under setting [14] was 102 % of control, the T/C under setting [15] is 97 % of control and the T/C under setting [8] is 91 % of control.

Take `CC(=O)Oc1cc(C)c(OC(C)=O)c2ccccc12`: the T/C reads like this: under setting [21], 94 % of control; under setting [16], 88 % of control.
